# Assay results from BindingDB's records for doi:10.1021/jm00166a009 (Ohio State University, 1990).
# Molecular target: Alpha-2 adrenergic receptor (Homo sapiens)
# Assay: Stimulatory activity against serotonin secretion (SEC).
row,SMILES,IC50 [µM]
1,Oc1cc(CC2=NCCN2)cc(F)c1O,18.2
2,Oc1ccc(CC2=NCCN2)c(F)c1O,15.5
3,Oc1ccc(C(O)c2ncc[nH]2)cc1O (stereo not drawn),437
